Measurements: PMC9530242, “Cryo-EM structure-based selection of computed ligand poses enables design of MTA-synergic PRMT5 inhibitors of better potency” (Communications Biology, 2022)
Where “and” joins values, the source holds several entries; their conditions need not be identical. Equal values may be shown once. Read-outs that look alike come from different tables or passages of the source.

Legend:
[1] = target: T1, PRMT5:MEP50 (Homo sapiens, UniProt O14744); assay: MTase-Glo methyltransferase enzymatic inhibition assay (methylation of H4 peptide); assay type: biochemical; conditions: 100 nM PRMT5:MEP50, 10 µM SAM, 2 µM histone H4 peptide (1-21), n = 3
T1 construct: full-length human PRMT5 (residues 1–637, NP_006100); FLAG; made in house; host or cells: Sf9 insect cells (Bac-to-Bac baculovirus)
T1 sequence (O14744 whole entry, the tested form may be a part): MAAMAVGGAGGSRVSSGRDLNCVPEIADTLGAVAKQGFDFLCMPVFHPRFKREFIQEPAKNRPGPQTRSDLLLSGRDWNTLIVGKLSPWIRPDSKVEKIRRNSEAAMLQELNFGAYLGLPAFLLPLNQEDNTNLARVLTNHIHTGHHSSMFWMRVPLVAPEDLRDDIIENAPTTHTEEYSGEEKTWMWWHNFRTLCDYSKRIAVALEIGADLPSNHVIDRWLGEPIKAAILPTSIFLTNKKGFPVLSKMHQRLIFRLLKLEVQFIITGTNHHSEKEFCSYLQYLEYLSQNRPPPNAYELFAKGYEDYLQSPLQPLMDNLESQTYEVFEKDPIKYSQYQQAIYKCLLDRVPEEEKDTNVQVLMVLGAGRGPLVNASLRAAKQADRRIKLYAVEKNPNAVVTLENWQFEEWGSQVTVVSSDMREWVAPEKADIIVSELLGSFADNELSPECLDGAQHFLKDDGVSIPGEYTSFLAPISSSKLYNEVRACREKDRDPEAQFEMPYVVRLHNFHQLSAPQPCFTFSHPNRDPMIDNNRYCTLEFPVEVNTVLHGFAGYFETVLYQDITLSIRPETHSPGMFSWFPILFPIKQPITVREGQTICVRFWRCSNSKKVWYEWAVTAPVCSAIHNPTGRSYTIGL
T1 sequence (Q9BQA1 2-342 partner limits assumed): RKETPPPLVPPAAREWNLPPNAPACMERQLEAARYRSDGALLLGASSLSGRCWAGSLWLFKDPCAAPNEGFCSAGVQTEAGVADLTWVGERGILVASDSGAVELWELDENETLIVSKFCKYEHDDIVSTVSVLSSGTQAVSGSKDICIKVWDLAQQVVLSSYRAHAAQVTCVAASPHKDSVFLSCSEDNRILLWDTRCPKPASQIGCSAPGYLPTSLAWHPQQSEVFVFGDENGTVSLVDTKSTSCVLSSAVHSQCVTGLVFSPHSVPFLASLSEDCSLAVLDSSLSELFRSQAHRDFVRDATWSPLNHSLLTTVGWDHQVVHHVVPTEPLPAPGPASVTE
Procedure: Recombinant PRMT5:MEP50 was purified to biochemical homogeneity from sf9 cells (Supplementary Fig. 1). Inhibition of PRMT5 activity (methylation of H4 peptide) was monitored by measuring luminescence from a MTase-Glow detection reagent.
PRMT5:MEP50 protein complex was prepared as described by Antonysamy, S., et al.[39]. Briefly, full-length human PRMT5 (residues 1–637, NP_006100) and human MEP50 (residues 2–342, NP_077007) were co-expressed in Sf9 cells using a Bac-to-Bac expression system (Invitrogen). The cells were harvested and lysed. […]
11-2 F was serially diluted by 5-fold from 500 µM to 6.4 nM in DMSO then added into reaction buffer (30 mM Tris-HCl at pH 7.4, 500 mM NaCl, 2 mM MgCl2, 2 mM TCEP, 0.1% (wt/vol) BSA and 0.01% (vol/vol) Tween-20) with final DMSO concentration at 5% (vol/vol). […] After shaking for 2 min and incubation at room temperature for 30 min, 20 µl room temperature MTase-Glo Detection Solution was added and mixed well before incubation for another 30 min and luminescence recording. Luminescence was measured in a Synergy Neo2 HTS multimode microplate reader (BioTek). […] Data are analyzed in GraphPad Prism 8. For inhibitor studies, IC50 was determined by nonlinear regression (curve fitting) using the equation for the sigmoidal dose response (variable slope).

[2] = target: T1, PRMT5:MEP50; assay: Surface plasmon resonance (SPR) binding study
Procedure: PRMT5:MEP50 protein complex was prepared as described by Antonysamy, S., et al.[39]. Briefly, full-length human PRMT5 (residues 1–637, NP_006100) and human MEP50 (residues 2–342, NP_077007) were co-expressed in Sf9 cells using a Bac-to-Bac expression system (Invitrogen). The cells were harvested and lysed. After removal of cell debris, supernatants were collected for FLAG-affinity chromatography (Sigma; A2220) and fractionated by size exclusion chromatography in a 10/300 Superose 6 column (GE Life Sciences). The purified PRMT5:MEP50 complex was characterized by SDS-PAGE and sedimentation velocity analytical ultracentrifugation (SV-AUC) using a ProteomeLab™XL-I system (Beckman Coulter; Supplementary Fig. 1). Protein samples were concentrated to 12 mg/mL in a buffer containing 10 mM HEPES at pH 7.5, 150 mM NaCl, 10% (vol/vol) glycerol and 2.0 mM DTT and were stored at −80 °C until the time of use.
Binding affinity measurements were conducted in a Reichert2SPR instrument (Ametek) at 25 °C. PRMT5:MEP50 proteins were directly immobilized onto a 500,000 Da carboxymethyl dextran sensor chip at pH 5.5 using a standard amine-coupling approach. The small molecule analyte (11-2 F as an example) was injected at a flow rate of 30 μL/min of different concentrations in the running buffer (10 mM HEPES pH 7.4, 150 mM NaCl, 3.0 mM EDTA, 0.005% v/v Tween-20, and 5% DMSO). The association and dissociation times were set to be 1 min. […] The dissociation time for 11-2 F in MTA-containing running buffer was elongated to be 3 min to achieve complete dissociation. Sensorogram data were processed using the TraceDrawer software package to calculate the equilibrium dissociation constant KD, the association rate constant kon and the dissociation rate constant koff.

[3] = tested on: SDMA from PRMT5 activity in MDA-MB-231 cells; assay: Cell-based assay of SDMA by western blotting (MTA-synergy in cultured cells); conditions: Homo sapiens, MDA-MB-231, 96 h, read-out: IC50, inhibition of SDMA production
Source text: The above analysis highlighted three principles that should be considered to enhance PRMT5 inhibition by 11-2F analogs. (1) It is important to retain the quinoline ring backbone to maintain the positive cooperativity with MTA. (2) The pi-stacking interactions of Trp579 and Phe327 with the quinoline ring may be enhanced to keep the inhibitor properly oriented, which could be achieved by introducing small groups (-F, or -CH3, or -NH3^+) to the ring. (3) The cyclo-alkylated indole ring of 11-2F is relatively flexible and may be stabilized by introducing H-bonds or electrostatic interactions with the binding pocket, especially with the residues on the flexible loop. […] Three 11-2F analogs predicted to have higher potency introduce more interactions with the binding pockets (Table 2; Supplementary Figs. 6–8, and Supplementary Tables 5–7). […] In the binding pocket, the 2,4-di-NH2-quinazoline of 11-9 F forms H-bonds with E444, E435, and S439, and its aromatic ring is sandwiched between the sidechains of Phe327 and Trp579. […]
MDA-MB-231 cells were seeded at 1.0 × 10^6 cells/dish and allowed to adhere overnight. […] The protein concentrations were determined using the BCA Protein Assay kit (Pierce #23227). […] After three washes with the TBST buffer, the membrane was analyzed using ECL Western blotting detection reagents (Pierce #34096) and imaged in a ChemiDoc MP imaging system (Bio-Rad). […]

Row | SMILES | IC50 ([1]; read-out: IC50, inhibition of PRMT5:MEP50 enzyme activity) | IC50 ([1]; read-out: IC50, inhibition of PRMT5 enzyme activity) | apparent positive coupling coefficient between 11-2F and MTA ([2]; KD without MTA vs with 25 μM MTA) | Kd ([2]; PRMT5:MEP50 saturated with 25 μM MTA) | Kd ([2]; PRMT5:MEP50 saturated with 25 μM SAH) | Kd ([2]; PRMT5:MEP50 saturated with 25 μM SAM) | koff ([2]; saturated with 25 μM MTA) | kon ([2]; saturated with 25 μM MTA) | koff ([2]; saturated with 25 μM SAH) | kon ([2]; saturated with 25 μM SAH) | koff ([2]; saturated with 25 μM SAM) | kon ([2]; saturated with 25 μM SAM) | Kd ([2]; without MTA (no cofactor)) | koff ([2]; without MTA (no cofactor)) | kon ([2]; without MTA (no cofactor)) | IC50 ([3]; 0 μM additional MTA (black trace)) | IC50 ([3]; 5.0 μM MTA (red trace))
1 | Nc1ccc2ccc(CNC(=O)c3ccc4c(c3)c3c(n4CCO)CCCC3)cc2n1 [11-2F, N-[(2′-aminoquinoline)-7′-methyl]-[9-(2-hydroxyethyl)-5,6,7,8-tetrahydro-carbazole]-3-carboxamide] | ~730 nM | 730 ± 200 nM | ~ 166 | ~82 nM and 82.1 nM | 1600 nM and 1630 nM | 380 nM and 375 nM | 0.0202 s⁻¹ | 246000 M⁻¹ s⁻¹ | 0.112 s⁻¹ | 75700 M⁻¹ s⁻¹ | 0.019 s⁻¹ | 50700 M⁻¹ s⁻¹ | ~13600 nM | 0.0844 s⁻¹ | 6190 M⁻¹ s⁻¹ |  | 
2 | CCn1c2c(c3cc(C(=O)NCc4ccc5c(N)nc(N)nc5c4)ccc31)CCCC2 [11-9F, N-[(2′,4′-diaminoquinazoline)-7′-methyl]-[9-ethyl-5,6,7,8-tetrahydro-carbazole]-3-carboxamide] |  |  |  |  |  |  |  |  |  |  |  |  |  |  |  | 32400 nM | 2400 nM
